Conditions in all cases: incubation time: 72 h
In assay [1] the test system is HCC1599. Description: normalised viability (% of control), CellTiter-Blue; higher = more viable cells (about 100 = DMSO control). In short, it runs like this:
(§1)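 Compound dissolved in 5 µl medium was pre-loaded into 384-well plates, and breast cancer cell lines in 20 µl suspension were seeded on top and incubated 72 h. After adding 2.5 µl CellTiter-Blue reagent for 2 h at 37 °C, fluorescence was read at 560/590 nm. Plates were normalised to vehicle (100) and a positive kill control (0), with Z'-factor quality control. Each value is normalised viability at a single listed concentration from the series.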
On the technique in general: Resazurin is reduced to fluorescent resorufin, in cell work by metabolically active cells.

The subject of assay [2] is HCC1937. Described as above. Put shortly: as §1
The subject of assay [3] is CAL-51. The description is as above. In short, it runs like this:
as §1

In assay [4] the test system is MDA-MB-231. The description is as above. In short, it runs like this: as §1
The test system of assay [5] is MDA-MB-468. Described as above. Put shortly: as §1
Assay [6] concerns BT-474. The description is as above. In short, it runs like this: as §1
Assay [7] relates to HDQ-P1. The description is as above. In short, it runs like this:
as §1

Assay [8] concerns HCC1143. Described as above. Put shortly: as §1
Assay [9] deals with DU-4475. The assay is described as above. In short, it runs like this: as §1
The subject of assay [10] is HCC1599. Kind of assay: drug sensitivity score (DSS), CellTox Green (DSS (AUC-based score)); higher = stronger drug effect (viability inhibition or cytotoxicity); extreme values may be limits of the assay. Put shortly:
(§2)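 Each compound occupied 5 concentrations in 10-fold steps over its own 10,000-fold range in 384-well plates, into which breast cancer cell lines were seeded as 20 µl suspension. Following 72 h of incubation, CellTox Green fluorescence (485/520 nm) was measured, and CellTiter-Glo luminescence was measured after 10 min at room temperature. Plates were individually normalised to 0.1 % DMSO and a positive kill control. From the area under the fitted dose-response curve, a drug sensitivity score was calculated.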

Assay [11] has as its system HCC1937. The description is as above. Put shortly: as §2
The next assay has as its system MDA-MB-453. The assay is described as above. In short, it runs like this:
as §2

In a further assay the test system is CAL-120. The description is as above. Put shortly: as §2
Assay [12] concerns CAL-51. The assay is described as above. In short, it runs like this: as §2
Assay [13] concerns MDA-MB-231. The description is as above. In short, it runs like this:
as §2

For assay [14], the system named is MDA-MB-468. Described as above. In short, it runs like this: as §2
For assay [15], the system named is BT-474. Described as above. In short, it runs like this: as §2
The test system of another assay is CAL-85-1. The assay is described as above. Put shortly: as §2
The test system of another assay is Hs578T. Described as above. Put shortly:
as §2

Assay [16] has as its system HDQ-P1. The assay is described as above. Put shortly: as §2
The test system of another assay is BT-549. The description is as above. Put shortly:
as §2

The subject of assay [17] is HCC1143. The description is as above. In short, it runs like this:
as §2

The next assay relates to MDA-MB-436. The description is as above. Put shortly:
as §2

The test system of another assay is MCF-10A. The assay is described as above. Put shortly:
as §2

Assay [18] relates to DU-4475. The description is as above. Put shortly: as §2

Consider five compounds from the supplement of paper PMC4862054.

Turning to `CNC(=O)c1ccccc1Sc1ccc2c(/C=C/c3ccccn3)n[nH]c2c1` [Axitinib], the normalised viability with HCC1599 [1] (10 nM) was determined as 105%; in the assay with HCC1599 [1] (1000 nM), 84.8%; with HCC1599 [1] (10000 nM) it was 62%; in the assay on HCC1937 [2] (10 nM) it was 41.1%; with HCC1937 [2] (1000 nM), 81.8%; in the assay with HCC1937 [2] (10000 nM) it was 42.6%. Besides, the normalised viability in the assay on CAL-51 [3] (3 nM) stood at 107%; in the assay on CAL-51 [3] (30 nM) it was 102%; in the assay on CAL-51 [3] (100 nM), 98.2%; in the assay with MDA-MB-231 [4] (10 nM), 102%; in the assay on MDA-MB-231 [4] (1000 nM), 88.7%; with MDA-MB-231 [4] (10000 nM) it was 72.1%. For the same compound, the normalised viability in the assay on MDA-MB-468 [5] (10 nM) worked out at 108%; with MDA-MB-468 [5] (1000 nM), 99.4%; in the assay on MDA-MB-468 [5] (10000 nM), 43.8%; in the assay on BT-474 [6] (10 nM), 112%; with BT-474 [6] (1000 nM), 105%; in the assay with BT-474 [6] (10000 nM) it was 76.4%. Also, the normalised viability in the assay on HDQ-P1 [7] (3 nM) amounted to 101%; in the assay on HDQ-P1 [7] (30 nM), 106%; in the assay on HDQ-P1 [7] (100 nM), 92.1%; with HCC1143 [8] (10 nM) it was 89.9%; in the assay on HCC1143 [8] (1000 nM) it was 96.2%; in the assay with HCC1143 [8] (10000 nM) it was 57.2%. In addition, the normalised viability came to 107% with DU-4475 [9] (3 nM), 114% in the assay on DU-4475 [9] (30 nM) and 97% with DU-4475 [9] (100 nM). For the same compound, the drug sensitivity score amounted to 0 in the assay with HCC1599 [10]; 0 in the assay with HCC1937 [11]; 0 in the assay on MDA-MB-453; 0 with CAL-120; 6.53 with CAL-51 [12]; 0 with MDA-MB-231 [13]. The drug sensitivity score with MDA-MB-468 [14], with BT-474 [15], in the assay on CAL-85-1, with Hs578T, in the assay on HDQ-P1 [16] and in the assay on BT-549 was 0 each time. The drug sensitivity score with HCC1143 [17], with MDA-MB-436, in the assay with MCF-10A and in the assay with DU-4475 [18] was 0 in each case.
In the case of `O=C(O)CNC(=O)c1c(O)c2ccccc2n(Cc2ccccc2)c1=O` [IOX-2], the drug sensitivity score amounted to 0 in the assay with HCC1599 [10]; 0 with HCC1937 [11]; 1.5 with MDA-MB-453; 0 with CAL-120; 0 in the assay with CAL-51 [12]; 0 in the assay with MDA-MB-231 [13]. In addition, the drug sensitivity score stood at 0 in the assay with MDA-MB-468 [14]; 0 in the assay with BT-474 [15]; 0 with CAL-85-1; 0 in the assay on Hs578T; 3.99 in the assay on HDQ-P1 [16]; 2.91 in the assay with BT-549. In addition, the drug sensitivity score in the assay with HCC1143 [17], in the assay on MDA-MB-436, in the assay on MCF-10A and in the assay with DU-4475 [18] was 0 throughout.
Regarding `CC1(COc2ccc3c(c2)ncn3-c2ccc3cccc(N4CCC(N)CC4)c3n2)COC1` [Crenolanib], the drug sensitivity score in the assay with HCC1599 [10] was determined as 0; with HCC1937 [11], 0; in the assay on MDA-MB-453, 0; in the assay with CAL-120, 0; with CAL-51 [12] it was 4.42; in the assay on MDA-MB-231 [13] it was 6.39. Also, the drug sensitivity score with MDA-MB-468 [14] is 0; in the assay with BT-474 [15], 5.99; in the assay on CAL-85-1, 6.6; with Hs578T, 0; with HDQ-P1 [16], 7.06; in the assay on BT-549, 4.07. Moreover, the drug sensitivity score is 1.14 with HCC1143 [17], 18.5 in the assay on MDA-MB-436, 5.3 in the assay with MCF-10A and 0.612 in the assay on DU-4475 [18].
With `CC(C)(C)c1nc(-c2cccc(NS(=O)(=O)c3c(F)cccc3F)c2F)c(-c2ccnc(N)n2)s1` [Dabrafenib], the drug sensitivity score in the assay on HCC1599 [10] was found to be 0; in the assay with HCC1937 [11], 1.11; in the assay with MDA-MB-453, 0; in the assay on CAL-120, 0; in the assay on CAL-51 [12], 0; with MDA-MB-231 [13] it was 0. The drug sensitivity score in the assay on MDA-MB-468 [14] is 0; in the assay with BT-474 [15], 0; in the assay with CAL-85-1 it was 0; with Hs578T it was 18.1; in the assay with HDQ-P1 [16], 1.28; in the assay on BT-549, 0. Further, the drug sensitivity score in the assay with HCC1143 [17] is 0; in the assay on MDA-MB-436 it was 0; in the assay with MCF-10A it was 0; with DU-4475 [18] it was 3.29.
On to `Cc1nc(C(=O)NCC(=O)O)c(O)c2ccc(Oc3ccccc3)cc12` [FG-4592], for which the drug sensitivity score in the assay on HCC1599 [10], with HCC1937 [11], in the assay with MDA-MB-453, in the assay with CAL-120, in the assay on CAL-51 [12] and in the assay with MDA-MB-231 [13] was 0 in each case. The drug sensitivity score in the assay on MDA-MB-468 [14], in the assay with BT-474 [15], in the assay with CAL-85-1, with Hs578T, in the assay on HDQ-P1 [16] and in the assay on BT-549 was 0 each time. The drug sensitivity score with HCC1143 [17], in the assay with MDA-MB-436, in the assay on MCF-10A and in the assay with DU-4475 [18] was 0 throughout.
